Laboratory results published in patent publication US5859004A, “Use of heterocyclic compounds for the treatment of conditions caused by malfunctioning of the nicotinic cholinergic system” (Novo Nordisk A/S, priority 1995, dated 1999).
Read-outs that look alike come from different tables or passages of the source.

How the values were obtained:
nicotinic = conditions: age related; cited from earlier work
[1] = target: T1, nicotinic acetylcholine receptors (rat cortical receptors) (Rattus norvegicus, UniProt P09483+P12390); experiment: Inhibition of specific binding of ^3 H-methylcarbamylcholine (^3 H-MCC); conditions: for Ratio Oxo/MCC: IC50 ^3 H-Oxo / IC50 ^3 H-MCC, selectivity nicotinic over muscarinic; for IC50: rat cortical receptors, ^3 H-MCC 2 nM, 0° C., 60 min
T1 construct: Fresh or frozen rat, brain tissue (hippocampus or cortex) was homogenized; from tissue; host or cells: rat brain tissue (hippocampus or cortex)
Source text: The pharmacological properties of the compounds of the invention can be illustrated by determining their capability to inhibit the specific binding of ^3 H-methylcarbamylcholine (^3 H-MCC) (Abood and Grassi, Biochem. Pharmacol., Vol. 35, pp. 4199--4202, (1986)).
^3 H-MCC labels the nicotinic receptors in the CNS. The inhibitory effect on ^3 H-MMC binding reflects the affinity for nicotinic acetylcholine receptors.
Fresh or frozen rat, brain tissue (hippocampus or cortex) was homogenized in assay buffer (50 mM Tris-HCl, pH 7.4, 120 mM NaCl, 5 mM KCl, 2 mM CaCl2, 1 mM MgCl2) and centrifuged for 10 min. at 40.000×g. Pellets were subsequently reconstituted in assay buffer and an appropriate amount of tissue sample was mixed in tubes with ^3 H-methylcarbamylcholine (NEN, NET-951; final concentration 2 nM) and test drug. The tubes were incubated at 0° C. for 60 min. Unbound ligand was separated from bound ligand by vacuum filtration through GF/B filters presoaked in 0.5% polyethylenimine. Filters were washed three times with 5 ml wash buffer (50 mM Tris-HCl, pH 7.4) and transferred to vials. 4 ml scintillation fluid was added and the radioactivity was measured by scintillation counting. Unspecific binding was measured with 10 μM nicotine.
The IC50 values of the test compounds were determined by nonlinear regression analyses (GraphPad InPlot).
Table I illustrates the affinity of the compounds of the present invention for nicotinic and muscarinic receptors as determined by ^3 H-MCC and ^3 H-Oxo binding to rat cortical receptors. The compounds, however, show selective affinity for nicotinic receptors as compared to muscarinic receptors, i.e OXO/MCC>1.

[2] = target: muscarinic acetylcholine receptors (rat cortical receptors); experiment: Inhibition of specific binding of ^3 H-Oxotremorine-M (^3 H-Oxo); conditions: rat cortex; ^3 H-Oxotremorine 1.0 nM, 25° C., 30 min
Source text: Furthermore, the pharmacological properties of the compounds of the invention can also be illustrated by determining their capability to inhibit the specific binding of ^3 H-Oxotremorine-M (^3 H-Oxo). Birdsdall N. J. M., Hulme E. C., and Burgen A. S. V. (1980). "The Character of Muscarinic Receptors in Different Regions of the Rat Brain". Proc. Roy. Soc. London (Series B) 207,1.
^3 H-Oxo labels muscarinic receptor in the CNS (with a preference for agonist domains of the receptors). Three different sites are labelled by ^3 H-Oxo. […] Using the present experimental conditions only the high and medium affinity sites are determined.
The inhibitory effects of compounds on ^3 H-Oxo binding reflects the affinity for muscarinic acetylcholine receptors.
All preparations are performed at 0°-4° C. unless otherwise indicated. Fresh cortex (0.1-1 g) from male Wistar rats (150-250 g) is homogenized for 5-10 s in 10 ml 20 mM Hepes pH: 7.4, with an Ultra-Turrax homogenizer. The homogenizer is rinsed with 10 ml of buffer and the combined suspension centrifuged for 15 min. at 40,000×g. The pellet is washed three times with buffer. In each step the pellet is homogenized as before in 2×10 ml of buffer and centrifuged for 10 min. at 40,000×g.
The final pellet is homogenized in 20 mM Hepes pH: 7.4 (100 ml per g of original tissue) and used for binding assay. Aliquots of 0.5 ml is added 25 μl of test solution and 25 μl of ^3 H-Oxotremorine (1.0 nM, final concentration) mixed and incubated for 30 min. at 25° C. Non-specific binding is determined in triplicate using arecoline (1 μg/ml, final concentration) as the test substance. After incubation samples are added 5 ml of ice-cold buffer and poured directly onto Whatman GF/C glass fiber filters under suction and immediately washed 2 times with 5 ml of ice-cold buffer. The amount of radioactivity on the filters are determined by conventional liquid scintillation counting. Specific binding is total binding minus non specific binding.
Test substances are dissolved in 10 ml water (if necessary heated on a steam-bath for less than 5 min.) at a concentration of 2.2 mg/ml. 25-75% inhibition of specific binding must be obtained before calculation of IC50. The test value will be given as IC50 (the concentration (nM) of the test substance which inhibits the specific binding of ^3 H-Oxo by 50%).
IC50 =(applied test substance concentration)×(Cx /Co
where Co is specific binding in control assays and Cx is the specific binding in the test assay. (The calculations assume normal mass-action kinetics).
Table I illustrates the affinity of the compounds of the present invention for nicotinic and muscarinic receptors as determined by ^3 H-MCC and ^3 H-Oxo binding to rat cortical receptors. […]

[3] = target: muscarinic acetylcholine receptors (rat cortical receptors); conditions: read-out: affinity of site labelled by ^3 H-Oxo, cited from earlier work
healthy humans = conditions: cited from earlier work
[4] = system: Alzheimer's disease patients; conditions: cited from earlier work
substantia nigra = conditions: chronic nicotine; lesioning; cited from earlier work
Tourette's syndrome = conditions: in vivo; cited from earlier work
dopamine release = conditions: nucleus accumbens versus striatum; cited from earlier work
dopaminergic effects = conditions: various behavioral models; cited from earlier work

T1 sequence (P09483 31-630): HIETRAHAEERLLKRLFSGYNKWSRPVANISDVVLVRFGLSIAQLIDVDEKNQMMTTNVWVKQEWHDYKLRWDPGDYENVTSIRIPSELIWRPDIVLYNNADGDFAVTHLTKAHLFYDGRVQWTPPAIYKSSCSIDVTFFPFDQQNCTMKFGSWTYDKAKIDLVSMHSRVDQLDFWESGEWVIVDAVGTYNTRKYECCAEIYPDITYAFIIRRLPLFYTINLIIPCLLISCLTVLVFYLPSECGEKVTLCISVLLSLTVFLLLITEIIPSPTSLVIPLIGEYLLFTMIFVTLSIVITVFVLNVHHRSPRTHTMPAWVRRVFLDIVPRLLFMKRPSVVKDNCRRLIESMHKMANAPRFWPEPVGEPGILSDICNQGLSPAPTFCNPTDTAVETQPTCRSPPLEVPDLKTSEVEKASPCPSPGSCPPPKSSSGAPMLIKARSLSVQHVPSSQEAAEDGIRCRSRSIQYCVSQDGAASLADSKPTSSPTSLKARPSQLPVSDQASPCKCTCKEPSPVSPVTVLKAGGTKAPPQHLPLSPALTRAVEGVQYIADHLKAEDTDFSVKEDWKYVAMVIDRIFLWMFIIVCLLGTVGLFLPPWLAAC
T1 sequence (P12390 25-500): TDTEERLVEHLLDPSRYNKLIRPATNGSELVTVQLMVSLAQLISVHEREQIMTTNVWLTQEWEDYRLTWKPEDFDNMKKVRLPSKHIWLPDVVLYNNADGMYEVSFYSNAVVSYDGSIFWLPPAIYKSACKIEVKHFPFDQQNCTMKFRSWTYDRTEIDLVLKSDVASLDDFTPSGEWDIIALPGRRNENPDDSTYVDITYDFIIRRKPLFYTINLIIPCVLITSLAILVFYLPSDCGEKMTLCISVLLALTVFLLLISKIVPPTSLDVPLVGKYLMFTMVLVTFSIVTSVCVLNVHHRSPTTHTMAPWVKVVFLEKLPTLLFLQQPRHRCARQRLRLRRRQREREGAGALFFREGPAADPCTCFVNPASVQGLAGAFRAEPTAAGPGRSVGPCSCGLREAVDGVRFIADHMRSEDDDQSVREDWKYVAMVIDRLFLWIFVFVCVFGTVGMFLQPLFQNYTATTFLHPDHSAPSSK

In the case of `CNC1(C)C2CCC(C2)C1(C)C` (stereo not shown) [mecamylamine], the cognitive impairment (nicotinic) is listed as “cause cognitive impairment in an age related way”.

For `Cc1cc(/C=C2\CN3CCC2C3)on1.O=C(O)C(=O)O` (stereo not shown) [Compound 5, (Z)-3-(3-methyl-5-isoxazolyl)methylene-1-azabicyclo[2.2.1]heptane oxalate], the “Ratio Oxo/MCC” value [1] was 17.2, the IC50 [1] was 25 nM and the IC50 [2] was 430 nM.

In the case of `Cc1cc(/C=C2/CN3CCCC2C3)on1.O=C(O)C(=O)O` (stereo not shown) [Compound 4, (E)-6-(3-methyl-5-isoxazolyl)methylene-1-azabicyclo[3.2.1]octane oxalate], the “Ratio Oxo/MCC” value [1] is reported as 22.1, the IC50 [1] is reported as 81 nM and the IC50 [2] is reported as 1780 nM.

In the case of `C[N+](C)(C)CC#CCN1CCCC1=O` [^3 H-Oxo, ^3 H-Oxotremorine-M], the Kd ([3]; high affinity site) is given as 1.8 nM, the Kd ([3]; medium affinity site) is given as 20 nM and the Kd ([3]; third (lowest affinity) site, not determined under the present conditions) is given as 3000 nM.

In the case of `CN1CCCC1c1cccnc1` (stereo not shown) [nicotine], the attention and memory (healthy humans) is given as “improved attention and memory”, the attention and memory [4] is given as “improved attention and memory” and the “protection against cell loss in the substantia nigra” value (substantia nigra) is given as “may protect against cell loss in the substantia nigra caused by lesioning”. For the same molecule, the “effects in Tourette's syndrome” value (Tourette's syndrome) was “beneficial effects in Tourette's syndrome”, the dopamine release (dopamine release) was “stimulates dopamine release in the nucleus accumbens more potently than in striatum” and the “potentiation of dopaminergic effects” value (dopaminergic effects) was “will potentiate dopaminergic effects in various behavioral models”.

In the case of `Cc1cc(/C=C2\CN3CCCC2C3)on1.O=C(O)C(=O)O` (stereo not shown) [Compound 3, (Z)-6-(3-methyl-5-isoxazolyl)methylene-1-azabicyclo[3.2.1]octane oxalate], the “Ratio Oxo/MCC” value [1] is reported as 5.9, the IC50 [1] is reported as 161 nM and the IC50 [2] is reported as 953 nM.

With `Cc1cc(/C=C2/CN3CCC2C3)on1.O=C(O)C(=O)O` (stereo not shown) [Compound 6, (E)-3-(3-methyl-5-isoxazolyl)methylene-1-azabicyclo[2.2.1]heptane oxalate] the “Ratio Oxo/MCC” value [1] was 55.0, the IC50 [1] was 20 nM and the IC50 [2] was 1100 nM.
